System: MDA-MB-468 spheroids with HUVEC/MSC, viability
Assay: Anticancer human tumor MDA-MB-468 cell line growth inhibition [PI3K];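 note: spheroids exposed to agents for seven days before readout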;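 for viability, T/C: 100% = DMSO vehicle control viability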
Details: for IC50: curve of first compound; for viability, T/C: stronger effect = lower value; active = viability on the fitted dose curve at most 10% of control; inactive = the rest
In short: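 Combination activity was assessed by viability in multicellular tumor spheroids carrying HUVEC and MSC components. Agents were tested with PI3K inhibitors from a Cmax-based top dose (or 10 microM) downward in half-log increments.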

Cn1ncnc1[C@H]1c2n[nH]c(=O)c3cc(F)cc(c23)N[C@@H]1c1ccc(F)cc1 + COc1c(OCCCN2CCOCC2)ccc2c3n(c(=NC(=O)c4cnc(N)nc4)nc12)CCN3
inactive: viability, T/C (second compound 0.00316 µM, first compound 0.000316 µM) 103% | viability, T/C (second compound 0.00316 µM, first compound 0.001 µM) 89% | viability, T/C (second compound 0.00316 µM, first compound 0.00316 µM) 83.8% | viability, T/C (second compound 0.00316 µM, first compound 0.01 µM) 79.1% | viability, T/C (second compound 0.00316 µM, first compound 0.0316 µM) 69.4% | viability, T/C (second compound 0.00316 µM, first compound 0.1 µM) 57.9% | viability, T/C (second compound 0.01 µM, first compound 0.000316 µM) 79.7% | viability, T/C (second compound 0.01 µM, first compound 0.001 µM) 89.8% | viability, T/C (second compound 0.01 µM, first compound 0.00316 µM) 92% | viability, T/C (second compound 0.01 µM, first compound 0.01 µM) 74.7% | viability, T/C (second compound 0.01 µM, first compound 0.0316 µM) 70.5% | viability, T/C (second compound 0.01 µM, first compound 0.1 µM) 50.1% | viability, T/C (second compound 0.0316 µM, first compound 0.000316 µM) 75.9% | viability, T/C (second compound 0.0316 µM, first compound 0.001 µM) 84.6% | viability, T/C (second compound 0.0316 µM, first compound 0.00316 µM) 70.2% | viability, T/C (second compound 0.0316 µM, first compound 0.01 µM) 67.1% | viability, T/C (second compound 0.0316 µM, first compound 0.0316 µM) 57.6% | viability, T/C (second compound 0.0316 µM, first compound 0.1 µM) 48.4% | viability, T/C (second compound 0.1 µM, first compound 0.000316 µM) 60.8% | viability, T/C (second compound 0.1 µM, first compound 0.001 µM) 65.1% | viability, T/C (second compound 0.1 µM, first compound 0.00316 µM) 63.4% | viability, T/C (second compound 0.1 µM, first compound 0.01 µM) 55.3% | viability, T/C (second compound 0.1 µM, first compound 0.0316 µM) 48% | viability, T/C (second compound 0.1 µM, first compound 0.1 µM) 34.7% | viability, T/C (second compound 0.316 µM, first compound 0.000316 µM) 29.5% | viability, T/C (second compound 0.316 µM, first compound 0.001 µM) 27.4% | viability, T/C (second compound 0.316 µM, first compound 0.00316 µM) 26.4% | viability, T/C (second compound 0.316 µM, first compound 0.01 µM) 26.9% | viability, T/C (second compound 0.316 µM, first compound 0.0316 µM) 26.7% | viability, T/C (second compound 0.316 µM, first compound 0.1 µM) 17.5%
active: viability, T/C (second compound 1 µM, first compound 0.000316 µM) 3.21% | viability, T/C (second compound 1 µM, first compound 0.001 µM) 2.83% | viability, T/C (second compound 1 µM, first compound 0.00316 µM) 2.99% | viability, T/C (second compound 1 µM, first compound 0.01 µM) 4.15% | viability, T/C (second compound 1 µM, first compound 0.0316 µM) 3.68% | viability, T/C (second compound 1 µM, first compound 0.1 µM) 2.25%
83.4 nM: IC50 (second compound 0.0316 µM)
> 100 nM: IC50 (second compound 0.00316 µM) | IC50 (second compound 0.01 µM)
< 0.316 nM: IC50 (second compound 0.316 µM) | IC50 (second compound 1 µM)
23.1 nM: IC50 (second compound 0.1 µM)

CC1(C)CCC(CN2CCN(c3ccc(C(=O)NS(=O)(=O)c4ccc(NCC5CCOCC5)c([N+](=O)[O-])c4)c(Oc4cnc5[nH]ccc5c4)c3)CC2)=C(c2ccc(Cl)cc2)C1
inactive: viability, T/C (compound 0.0316 µM) 92.6% [middle of 4 runs] | viability, T/C (compound 0.1 µM) 88% [middle of 4 runs] | viability, T/C (compound 0.316 µM) 97.9% [middle of 4 runs] | viability, T/C (compound 1 µM) 99.4% [middle of 4 runs] | viability, T/C (compound 3.16 µM) 72.8% [middle of 4 runs]
